Measured values from US10226448B2, “3-(1H-pyrrolo[3,2-C]pyridin-2-yl)-1H-pyrazolo[3,4-B]pyridines and therapeutic uses thereof” (Samumed, LLC, priority 2015, dated 2019).

Tests used:
Format in all cases: cell-based
[1] = test system: Wnt activity (Sp5-Luc reporter, TCF/LEF binding sites) in SW480 colon carcinoma cells; experiment: Wnt activity screening assay: Sp5-Luc reporter gene assay in SW480 cells; details: Homo sapiens; for EC50: Sp5-Luc reporter, SW480 cells, overnight incubation; for inhibition at 10 µM: SW480, read-out: percent inhibition at 10 μM
How it was run: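 SW480 cells stably carrying a luciferase reporter under a human Sp5 promoter with eight TCF/LEF sites, plated at 4,000 cells/well in 1% FBS medium. Luminescence read with BrightGlo, normalized to DMSO-treated cells; EC50 from four-parameter variable-slope nonlinear regression.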

SW480 colon cancer cells = experiment: Cell viability assay (CellTiter-Blue) in SW480 colon cancer cells; details: Homo sapiens; for EC50: 96 h, SW480 cell viability, four days, CellTiter-Blue; for inhibition at 10 µM: SW480, read-out: percent inhibition at 10 μM
How it was run: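 Fluorescence from resazurin reduced to resorufin by metabolically active cells was the read-out, taken after ~3 h with CellTiter-Blue.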

[2] = test system: LL29 cells (primary human fibroblasts derived from IPF patients), α-smooth muscle actin; experiment: Inhibition of the fibrotic process: αSMA staining in TGF-β1 treated primary human fibroblasts from IPF patients (LL29 cells); details: Fibroblast; for EC50: 96 h, LL29 cells, TGF-β1 20 ng/mL, 4 days, % αSMA positive cells; for inhibition at 10 µM: read-out: percent inhibition at 10 μM
How it was run: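 Read-out after 4-day incubation: αSMA staining with 1 μM SYTOX green nuclear counterstain (30 min, room temperature). Cells were LL29 primary fibroblasts from IPF patients, in 1% FBS F12, exposed to TGF-β1 with test compound, referenced to TGF-β1/DMSO control wells.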

[3] = test system: primary human mesenchymal stem cells (hMSCs); experiment: Induction of chondrogenesis in primary human mesenchymal stem cells (chondrogenic nodules, Rhodamine B / Nile Red); details: 6 days; for EC50: concentration required to induce 50% levels of chondrogenesis vs TGF-β3, read-out: Conc (nM) of 50% TGF-β3 activity; for Emax: relative to TGF-β3 (10 ng/mL) positive control, read-out: Max. Activity as % TGF-β3 activity
Source text: Representative compounds were screened using primary human mesenchymal stem cells (hMSCs) to determine their ability to induce chondrogenesis (process by which cartilage is developed).
Human Mesenchymal Stem Cell Culture: Primary human mesenchymal stem cells (hMSCs) were purchased from Lonza (Walkersville, Md.) and expanded in Mesenchymal Stem Cell Growth Media (Lonza). Cells between passage 3 and 6 were used for the experiments.
To image chondrogenic nodules, the cells were fixed using 4% formaldehyde (Electron Microscopy Sciences), and stained with 2 μg/mL Rhodamine B (Sigma-Aldrich) and 20 μM Nile Red (Sigma-Aldrich) [Johnson K., et. al, A Stem Cell-Based Approach to Cartilage Repair, Science, (2012). […] Number of nodules in each well was normalized to the average of 3 DMSO treated wells on the same plate using Excel (Microsoft Inc.). The normalized averages (fold change over DMSO) of 3 replicate wells for each compound concentration were calculated. Due to solubility limitations of some of the compounds, curve fitting was incomplete leading to inaccurate EC50 determinations.
Using TGF-β3 as a positive control, the concentration of representative compounds required to induce 50% levels of chondrogenesis is reported. In addition, the maximum activity of each compound and the respective dose that each compound reached maximum chondrogenesis activity is reported.

IL-6 in THP-1 cells = experiment: IL-6 inhibition in LPS-stimulated THP-1 human monocyte cells (HTRF); details: for EC50: IL-6 inhibition, LPS-stimulated THP-1 cells, HTRF, 10-point dose-response starting from 10 μM; for inhibition at 10 µM: THP-1, read-out: percentage in parentheses beside EC50 >10
How it was run: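 THP-1 cells were serum-reduced (1% FBS, 24 h), plated at 5000 cells/well with compound for 2 h at 37 °C, then stimulated 22 h with 500 ng/mL LPS. Secreted IL-6 was quantified by HTRF (665/620 nm ratio). Signals were normalised to DMSO, and EC50 was fitted by four-parameter nonlinear regression.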

Row | SMILES | EC50 [1] [µM] | EC50 (SW480 colon cancer cells) [µM] | EC50 [2] [nM] | EC50 [3] [nM] | Emax [3] [%] | EC50 (IL-6 in THP-1 cells) [nM] | inhibition at 10 µM [2] [%] | inhibition at 10 µM (SW480 colon cancer cells) [%] | inhibition at 10 µM [1] [%] | inhibition at 10 µM (IL-6 in THP-1 cells) [%]
1 | c1cc2[nH]c(-c3n[nH]c4ncc(-c5cncc(CN6CCCCC6)c5)cc34)cc2c(N2CCCCC2)n1 [Compound 183, 3-(4-(Piperidin-1-yl)-1H-pyrrolo[3,2-c]pyridin-2-yl)-5-(5-(piperidin-1-ylmethyl)pyridin-3-yl)-1H-pyrazolo[3,4-b]pyridine] | 3.85 | 0.827 | 1220 | 900 | 62 | 4800 |  |  |  | 
2 | CC(C)(C)CC(=O)Nc1cncc(-c2cnc3[nH]nc(-c4cc5c(N6CCCCC6)nccc5[nH]4)c3c2)c1 [Compound 184, 3,3-Dimethyl-N-(5-(3-(4-(piperidin-1-yl)-1H-pyrrolo[3,2-c]pyridin-2-yl)-1H-pyrazolo[3,4-b]pyridin-5-yl)pyridin-3-yl)butanamide] | 1.33 | 1.43 | 773 |  | 84 | 2260 |  |  |  | 
3 | O=C(Nc1cncc(-c2cnc3[nH]nc(-c4cc5c(N6CCCCC6)nccc5[nH]4)c3c2)c1)C1CC1 [Compound 188, N-(5-(3-(4-(Piperidin-1-yl)-1H-pyrrolo[3,2-c]pyridin-2-yl)-1H-pyrazolo[3,4-b]pyridin-5-yl)pyridin-3-yl)cyclopropanecarboxamide] | 3.85 | 6.71 | > 10000 |  | 42 | 2540 | 0 |  |  | 
4 | CC(C)CC(=O)Nc1cncc(-c2cnc3[nH]nc(-c4cc5c(N6CCN(C)CC6)nccc5[nH]4)c3c2)c1 [Compound 226, 3-Methyl-N-(5-(3-(4-(4-methylpiperazin-1-yl)-1H-pyrrolo[3,2-c]pyridin-2-yl)-1H-pyrazolo[3,4-b]pyridin-5-yl)pyridin-3-yl)butanamide] | 3.41 | > 10 | > 10000 |  | 99 | 141 | 0 | 57.6 |  | 
5 | CN1CCN(c2nccc3[nH]c(-c4n[nH]c5ncc(-c6cncc(N)c6)cc45)cc23)CC1 [Compound 227, 5-(3-(4-(4-Methylpiperazin-1-yl)-1H-pyrrolo[3,2-c]pyridin-2-yl)-1H-pyrazolo[3,4-b]pyridin-5-yl)pyridin-3-amine] | > 10 | > 10 | > 10000 |  | 18 | 707 | 0 | 14.4 | 28.1 | 
6 | CC(C)C(=O)Nc1cncc(-c2cnc3[nH]nc(-c4cc5c(N6CCN(C)CC6)nccc5[nH]4)c3c2)c1 [Compound 233, N-(5-(3-(4-(4-Methylpiperazin-1-yl)-1H-pyrrolo[3,2-c]pyridin-2-yl)-1H-pyrazolo[3,4-b]pyridin-5-yl)pyridin-3-yl)isobutyramide] | > 10 | > 10 | > 10000 | 30 | 62 | 611 | 34 | 10.7 | 19.5 | 
7 | CN1CCN(c2nccc3[nH]c(-c4n[nH]c5ncc(-c6cncc(NC(=O)c7ccccc7)c6)cc45)cc23)CC1 [Compound 235, N-(5-(3-(4-(4-Methylpiperazin-1-yl)-1H-pyrrolo[3,2-c]pyridin-2-yl)-1H-pyrazolo[3,4-b]pyridin-5-yl)pyridin-3-yl)benzamide] | 3.24 | > 10 | 891 |  | 63 | 6980 |  | 19.1 |  | 
8 | CN1CCN(c2nccc3[nH]c(-c4n[nH]c5ncc(-c6cncc(CN7CCCCC7)c6)cc45)cc23)CC1 [Compound 239, 3-(4-(4-Methylpiperazin-1-yl)-1H-pyrrolo[3,2-c]pyridin-2-yl)-5-(5-(piperidin-1-ylmethyl)pyridin-3-yl)-1H-pyrazolo[3,4-b]pyridine] | > 10 | 3.8 | > 10000 |  | 24 | 3280 | 28.8 |  | 55 | 
9 | CN1CCN(c2nccc3[nH]c(-c4n[nH]c5ncc(-c6cncc(NC(=O)C7CCCC7)c6)cc45)cc23)CC1 [Compound 246, N-(5-(3-(4-(4-Methylpiperazin-1-yl)-1H-pyrrolo[3,2-c]pyridin-2-yl)-1H-pyrazolo[3,4-b]pyridin-5-yl)pyridin-3-yl)cyclopentane carboxamide] | > 10 | > 10 | 6460 |  | 30 | 2150 |  | 15.4 | 43 | 
10 | CCC(=O)Nc1cncc(-c2cnc3[nH]nc(-c4cc5cnccc5[nH]4)c3c2)c1 [Compound 253, N-(5-(3-(1H-Pyrrolo[3,2-c]pyridin-2-yl)-1H-pyrazolo[3,4-b]pyridin-5-yl)pyridin-3-yl)propionamide] | 0.96 | > 10 | 3710 |  | 17 | 1000 |  | 50.3 |  | 
11 | c1cncc(-c2cnc3[nH]nc(-c4cc5cnccc5[nH]4)c3c2)c1 [Compound 256, 5-(Pyridin-3-yl)-3-(1H-pyrrolo[3,2-c]pyridin-2-yl)-1H-pyrazolo[3,4-b]pyridine] | 0.251 | 0.356 | 200 |  | 54 | 218 |  |  |  | 
12 | CN(C)c1cncc(-c2cnc3[nH]nc(-c4cc5cnccc5[nH]4)c3c2)c1 [Compound 259, 5-(3-(1H-Pyrrolo[3,2-c]pyridin-2-yl)-1H-pyrazolo[3,4-b]pyridin-5-yl)-N,N-dimethylpyridin-3-amine] | 3.76 | 1.63 | 1430 | 10 | 80 | > 10000 |  |  |  | 20.1
13 | O=C(Nc1cncc(-c2cnc3[nH]nc(-c4cc5cnccc5[nH]4)c3c2)c1)c1ccccc1 [Compound 263, N-(5-(3-(1H-Pyrrolo[3,2-c]pyridin-2-yl)-1H-pyrazolo[3,4-b]pyridin-5-yl)pyridin-3-yl)benzamide] | > 10 | > 10 | > 10000 | 30 | 70 | > 10000 | 0 | 24.6 | 65.5 | 30
14 | c1cc2[nH]c(-c3n[nH]c4ncc(-c5cncc(CN6CCCCC6)c5)cc34)cc2cn1 [Compound 267, 5-(5-(Piperidin-1-ylmethyl)pyridin-3-yl)-3-(1H-pyrrolo[3,2-c]pyridin-2-yl)-1H-pyrazolo[3,4-b]pyridine] | 1.54 | 1.24 | 1850 |  | 40 | 1560 |  |  |  | 
15 | CC(C)(C)CC(=O)Nc1cncc(-c2cnc3[nH]nc(-c4cc5cnccc5[nH]4)c3c2)c1 [Compound 268, N-(5-(3-(1H-Pyrrolo[3,2-c]pyridin-2-yl)-1H-pyrazolo[3,4-b]pyridin-5-yl)pyridin-3-yl)-3,3-dimethylbutanamide] | 0.605 | 1.1 | 3350 |  | 7 | 683 |  |  |  | 
16 | CCCC(=O)Nc1cncc(-c2cnc3[nH]nc(-c4cc5cnccc5[nH]4)c3c2)c1 [Compound 269, N-(5-(3-(1H-Pyrrolo[3,2-c]pyridin-2-yl)-1H-pyrazolo[3,4-b]pyridin-5-yl)pyridin-3-yl)butyramide] | 0.867 | 3.35 | 2260 |  | 100 | 1020 |  |  |  | 
17 | CCCCC(=O)Nc1cncc(-c2cnc3[nH]nc(-c4cc5cnccc5[nH]4)c3c2)c1 [Compound 271, N-(5-(3-(1H-Pyrrolo[3,2-c]pyridin-2-yl)-1H-pyrazolo[3,4-b]pyridin-5-yl)pyridin-3-yl)pentanamide] | 1.47 | 4.03 | 4100 |  | 31 | 2860 |  |  |  | 
